Where a name gives a salt, the structure may show the parent alone. Read-outs that look alike come from different tables or passages of the source. Marks after values point to notes of the source that are not given here.
Tests used:
[1] = Evaluation of hippocampal distribution in mouse; type: in vivo; details: male ICR mice, 10 mg/kg oral; for concentration at 1 h: 1 hr after administration; for concentration at 0.5 h: 0.5 hr after administration
In short: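 Male ICR mice dosed orally at 10 mg/kg as suspension in 0.5% methylcellulose/0.02% citric acid/water. Plasma and hippocampus sampled together at 0.5, 1 or 1.5 h; LC/MS/MS concentrations gave hippocampus/plasma ratio.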

[2] = test system: Gad1 H3K4me2 level in rat primary culture neurons; assay: Gad1 H3K4 methylation induction activity in rat primary culture neurons (ChIP-qPCR); type: cell-based; details: control without compound = 100%; for activity at 1 µM / activity at 10 µM: Rattus norvegicus, Neuron, 72 h; for activity at 1 µM: read-out: Gad1 H3K4me2 induction activity (%), compound 1 μM, 3 days, rat primary culture neurons; for activity at 10 µM: read-out: Gad1 H3K4me2 induction activity (%), compound 10 μM, 3 days, rat primary culture neurons; for Gad1 H3K4me2 induction activity (%): 3 days, rat primary culture neurons
Procedure: Gad1 H3K4 Methylation Induction Activity in Rat Primary Culture Neurons
Thereafter, the compound was added to final concentrations of 1 or 10 μM, and the cells were further cultured for 3 days. The culture supernatant was aspirated, ice-cold PBS was added, and the cell suspension was collected on ice using CELL SCRAPER (IWAKI). […] (750 μL). Furthermore, 0.3% NP40/cell lysis buffer 1 (750 μL) was added, and the cells were lysed by incubating for 5 min on ice.
Using the DNA obtained by the chromatin immunoprecipitation as a template, quantitative PCR of the Gad1 gene upstream genomic region was performed, and the measurement value was taken as the Gad1 H3K4me2 level. […] The Gad1 H3K4me2 induction by the compound was expressed by the H3K4me2 level when the compound was added, as compared to the H3K4me2 level of the control (without addition of the compound) as 100%.

[3] = test system: white blood cell number, red blood cell number, platelet number; assay: Evaluation of blood cell number in mouse; type: in vivo; details: oral, Day 2 after administration
In short: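 Male ICR mice dosed orally at 1, 10, 50 or 100 mg/kg (suspension in 0.5% methylcellulose/0.02% citric acid/water); whole blood collected on Day 2. White cell, red cell and platelet counts per unit volume by automated haematology analyser, expressed as % of mean of untreated control group.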

[4] = hippocampus, read-out: hippocampus concentration (mean)
[5] = plasma, read-out: plasma concentration (mean)

| SMILES | concentration at 1 h [1, 4] [ng/g] | concentration at 1 h [1, 5] [ng/mL] | activity at 1 µM [2] [%] | activity at 10 µM [2] [%] | platelet number, percentage of compound administration group compared to control group, mean ([3]; 10 mg/kg) | red blood cell number, percentage of compound administration group compared to control group, mean ([3]; 10 mg/kg) | white blood cell number, percentage of compound administration group compared to control group, mean ([3]; 10 mg/kg) | platelet number, percentage of compound administration group compared to control group, mean ([3]; 100 mg/kg) [%] | red blood cell number, percentage of compound administration group compared to control group, mean ([3]; 100 mg/kg) [%] | white blood cell number, percentage of compound administration group compared to control group, mean ([3]; 100 mg/kg) [%] | concentration at 0.5 h [1, 4] [ng/g] | concentration at 0.5 h [1, 5] [ng/mL] | Gad1 H3K4me2 induction activity (%) ([2]; compound 10 μM) | platelet number, percentage of compound administration group compared to control group, mean ([3]; 1 mg/kg) | red blood cell number, percentage of compound administration group compared to control group, mean ([3]; 1 mg/kg) | white blood cell number, percentage of compound administration group compared to control group, mean ([3]; 1 mg/kg) | Gad1 H3K4me2 induction activity (%) ([2]; compound 1 μM) |
| --- | --- | --- | --- | --- | --- | --- | --- | --- | --- | --- | --- | --- | --- | --- | --- | --- | --- |
| O=C(NC1CC(F)(F)C1)c1cccc([C@@H]2C[C@H]2NCC2CC2)c1 (relative stereo) [Example 99, 3-(trans-2-((cyclopropylmethyl)amino)cyclopropyl)-N-(3,3-difluorocyclobutyl)benzamide hydrochloride] | 283 | 143 | 174 | 181 | 116.9% | 102.8% | 66.0% | 111.1 | 101.5 | 79.4 | – | – | – | – | – | – | – |
| Cc1nnc(NC(=O)c2cc([C@@H]3C[C@H]3NCC3CC3)ccc2F)s1 (relative stereo) [Example 110, 5-(trans-2-((cyclopropylmethyl)amino)cyclopropyl)-2-fluoro-N-(5-methyl-1,3,4-thiadiazol-2-yl)benzamide dihydrochloride] | – | – | 172 | 208 | 93.4% | 98.7% | 114.9% | 96.4 | 100.4 | 112.0 | 3300 | 4490 | – | – | – | – | – |
| CCn1cc(NC(=O)c2cccc([C@@H]3C[C@H]3NCC3CC3)c2)cn1 (relative stereo) [Example 101, 3-(trans-2-((cyclopropylmethyl)amino)cyclopropyl)-N-(1-ethyl-1H-pyrazol-4-yl)benzamide dihydrochloride] | – | – | 128 | 135 | 107.9% | 99.2% | 121.8% | 108.9 | 98.5 | 100.4 | 181 | 907 | – | – | – | – | – |
| Cc1nnc(NC(=O)c2cccc([C@@H]3C[C@H]3NC3CCN(C4CC4)CC3)c2)s1 (relative stereo) [Example 176, 3-(trans-2-((1-cyclopropylpiperidin-4-yl)amino)cyclopropyl)-N-(5-methyl-1,3,4-thiadiazol-2-yl)benzamide fumarate] | 642 | 515 | 139 | 116 | 96.7% | 97.5% | 106.6% | 90.2 | 100.8 | 107.8 | – | – | – | – | – | – | – |
| O=C(NC1CCOCC1)c1cccc([C@@H]2C[C@H]2NC2CCC2)c1 (relative stereo) [Example 179, 3-(trans-2-(cyclobutylamino)cyclopropyl)-N-(tetrahydro-2H-pyran-4-yl)benzamide hydrochloride] | – | – | 175 | 123 | 94.8% | 102.5% | 94.2% | 92.5 | 100.4 | 121.2 | 321 | 421 | – | – | – | – | – |
| Cc1cc(NC(=O)c2cccc([C@@H]3C[C@H]3NCC3CC3)c2)no1 (relative stereo) [Example 103, 3-(trans-2-((cyclopropylmethyl)amino)cyclopropyl)-N-(5-methyl-1,2-oxazol-3-yl)benzamide hydrochloride] | 1030 | 375 | 139 | 134 | 88.7% | 95.0% | 100.9% | 96.8 | 98.5 | 105.9 | – | – | – | – | – | – | – |
| Cn1cc(NC(=O)c2cccc([C@@H]3C[C@H]3NC3CCCC3)c2)cn1 (relative stereo) [Example 172, 3-(trans-2-(cyclopentylamino)cyclopropyl)-N-(1-methyl-1H-pyrazol-4-yl)benzamide dihydrochloride] | 419 | 556 | 145 | 204 | 97.0% | 99.0% | 101.3% | 99.6 | 97.7 | 130.0 | – | – | – | – | – | – | – |
| Cn1cc(NC(=O)c2cc([C@@H]3C[C@H]3NC3CCC(F)(F)CC3)ccc2F)cn1 (relative stereo) [Example 186, 5-(trans-2-((4,4-difluorocyclohexyl)amino)cyclopropyl)-2-fluoro-N-(1-methyl-1H-pyrazol-4-yl)benzamide hydrochloride] | – | – | 239 | 191 | 93.1% | 101.5% | 129.3% | 88.2 | 99.2 | 111.2 | 3120 | 1320 | – | – | – | – | – |
| Cc1nnc(NC(=O)c2cccc(C3CC3NCC3CC3)c2)s1 (single isomer, unassigned) [Example 98, 3-(trans-2-((cyclopropylmethyl)amino)cyclopropyl)-N-(5-methyl-1,3,4-thiadiazol-2-yl)benzamide hydrochloride (Optical Isomer, Retention Time Long)] | – | – | 114 | – | 102.0^c % | 105.6^c % | 106.5^c % | – | – | – | – | – | 133 | 105.4^b % | 103.6^b % | 96.5^b % | – |
| Cc1nnc(NC(=O)c2cccc(C3CC3NCC3CC3)c2)s1 (single isomer, unassigned) [Example 97, 3-(trans-2-((cyclopropylmethyl)amino)cyclopropyl)-N-(5-methyl-1,3,4-thiadiazol-2-yl)benzamide hydrochloride (Optical Isomer, Retention Time Short)] | – | – | – | – | 105.2^c % | 105.0^c % | 100.7^c % | – | – | – | – | – | 111 | 99.4^b % | 102.7^b % | 114.4^b % | 100 |

— US9751885B2, “Cyclopropanamine compound and use thereof” (Takeda Pharmaceutical Company Limited, priority 2012, dated 2017)
